Data on 30 compounds can be found in patent US8048879B2, “Substituted 4,5,6,7-tetrahydro-isoxazolo[4,5-c]pyridine compounds and use thereof for producing medicaments” (Gruenenthal GmbH, priority 2005, dated 2011).

The test concerns batrachotoxin (BTX) binding site of the sodium channel. The test is described as follows: Affinity for the batrachotoxin (BTX) binding site of the sodium channel, [3H]-batrachotoxinin A20 α-benzoate, rat cerebrocortex synaptosomes. The conditions noted are these: test concentration not given.

Molecules are shown by their SMILES.

Consider `CCCCOc1ccc(S(=O)(=O)N2CCc3onc(C(=O)NCC(C)C)c3C2)cc1` [Example 114, 5-(4-butoxy-benzenesulfonyl)-4,5,6,7-tetrahydro-isoxazolo[4,5-c]pyridine-3-carboxylic acid isobutyl amide], for which the “BTX inhibition (rat) % inhibition” value is reported as 58%.

As to `CC(NC(=S)N1CCc2onc(C(=O)NCCc3ccccc3)c2C1)c1ccccc1` (stereo not drawn) [Example 132, 5-(1-phenyl-ethylthiocarbamoyl)-4,5,6,7-tetrahydro-isoxazolo[4,5-c]pyridine-3-carboxylic acid phenethyl amide], the “BTX inhibition (rat) % inhibition” value was 90%.

Take `O=C(NCCc1ccccc1)c1noc2c1CN(C(=S)Nc1c(F)c(F)c(F)c(F)c1F)CC2` [Example 131, 5-pentafluorophenylthiocarbamoyl-4,5,6,7-tetrahydro-isoxazolo[4,5-c]pyridine-3-carboxylic acid phenethyl amide]: the “BTX inhibition (rat) % inhibition” value is 58%.

Take `O=C(NCCCc1ccccc1)c1noc2c1CN(S(=O)(=O)c1ccc(F)cc1)CC2` [Example 35, 5-(4-fluoro-benzenesulfonyl)-4,5,6,7-tetrahydro-isoxazolo[4,5-c]pyridine-3-carboxylic acid (3-phenyl-propyl) amide]: the “BTX inhibition (rat) % inhibition” value is listed as 59%.

As for `Cc1ccc(NC(=O)c2noc3c2CN(S(=O)(=O)c2ccc(C)cc2)CC3)cc1` [Example 152, N-p-tolyl-5-tosyl-4,5,6,7-tetrahydroisoxazolo[4,5-c]pyridine-3-carboxamide], the “BTX inhibition (rat) % inhibition” value was 29%.

`N#Cc1cccc(NC(=O)N2CCc3onc(C(=O)NCc4cccs4)c3C2)c1` [Example 12, 6,7-dihydro-4H-isoxazolo[4,5-c]pyridine-3,5-dicarboxylic acid 5-[(3-cyano-phenyl) amide]3-[(thiophen-2-ylmethyl) amide]]: the “BTX inhibition (rat) % inhibition” value came out at 47%.

`O=C(c1noc2c1CN(S(=O)(=O)c1cc(Cl)ccc1Cl)CC2)N1CCN(c2ccccc2Cl)CC1` [Example 110, [4-(2-chlorophenyl)-piperazin-1-yl]-[5-(2,5-dichloro-benzenesulfonyl)-4,5,6,7-tetrahydro-isoxazolo[4,5-c]pyridin-3-yl]-methanone]: the “BTX inhibition (rat) % inhibition” value was determined as 55%.

Regarding `Cc1cc(C(=O)N2CCc3onc(C(=O)NCCN4CCOCC4)c3C2)ccc1Br` [Example 90, 5-(4-bromo-3-methyl-benzoyl)-4,5,6,7-tetrahydro-isoxazolo[4,5-c]pyridine-3-carboxylic acid (2-morpholin-4-yl-ethyl) amide], the “BTX inhibition (rat) % inhibition” value came out at 42%.

Take `O=C(NC1CCN(Cc2ccc3ccccc3c2)C1)c1noc2c1CN(S(=O)(=O)c1ccccc1)CC2` (stereo not drawn) [Example 33, 5-benzenesulfonyl-4,5,6,7-tetrahydro-isoxazolo[4,5-c]pyridine-3-carboxylic acid (1-naphthalen-2-ylmethyl-pyrrolidin-3-yl) amide]: the “BTX inhibition (rat) % inhibition” value is given as 93%.

As to `COc1ccc(NC(=O)N2CCc3onc(C(=O)NCc4ccc(S(N)(=O)=O)cc4)c3C2)cc1` [Example 154, N^5-(4-methoxyphenyl)-N^3-(4-sulfamoylbenzyl)-6,7-dihydroisoxazolo[4,5-c]pyridine-3,5(4H)-dicarboxamide], the “BTX inhibition (rat) % inhibition” value came to 4%.

As for `CCOC(=O)c1cccc(NC(=O)N2CCc3onc(C(=O)NCc4ccc(C)o4)c3C2)c1` [Example 23, 3-({3-[(5-methyl-furan-2-ylmethyl)-carbamoyl]-6,7-dihydro-4H-isoxazolo[4 5-c]pyridine-5-carbonyl}-amino)-benzoic acid ethyl ester], the “BTX inhibition (rat) % inhibition” value is given as 46%.

`O=C(c1noc2c1CN(S(=O)(=O)c1cccc(C(F)(F)F)c1)CC2)N(CCc1ccccc1)Cc1ccccc1` [Example 68, 5-(3-trifluoromethyl-benzenesulfonyl)-4,5,6,7-tetrahydro-isoxazolo[4,5-c]pyridine-3-carboxylic acid benzyl-phenethyl amide]: the “BTX inhibition (rat) % inhibition” value turned out to be 51%.

As for `O=C(c1noc2c1CN(S(=O)(=O)c1ccc(OC(F)(F)F)cc1)CC2)N(CCc1ccccc1)Cc1ccccc1` [Example 32, 5-(4-trifluoromethoxy-benzenesulfonyl)-4,5,6,7-tetrahydro-isoxazolo[4,5-c]pyridine-3-carboxylic acid benzyl-phenethyl amide], the “BTX inhibition (rat) % inhibition” value came out at 59%.

As for `Cc1cc(C(=O)N2CCc3onc(C(=O)NCCN4CCCC4)c3C2)ccc1Br` [Example 102, 5-(4-bromo-3-methyl-benzoyl)-4,5,6,7-tetrahydro-isoxazolo[4,5-c]pyridine-3-carboxylic acid (2-pyrrolidin-1-yl-ethyl) amide], the “BTX inhibition (rat) % inhibition” value worked out at 73%.

As for `O=C(NCCN1CCCC1)c1noc2c1CN(C(=O)COc1cccc(Cl)c1)CC2` [Example 155, 5-(2-(3-chlorophenoxy)acetyl)-N-(2-(pyrrolidin-1-yl)ethyl)-4,5,6,7-tetrahydroisoxazolo[4,5-c]pyridine-3-carboxamide], the “BTX inhibition (rat) % inhibition” value turned out to be 64%.

Regarding `COCCNC(=O)c1noc2c1CN(C(=O)c1ccc(C(F)(F)F)c(F)c1)CC2` [Example 153, 5-(3-fluoro-4-(trifluoromethyl)benzoyl)-N-(2-methoxyethyl)-4,5,6,7-tetrahydroisoxazolo[4,5-c]pyridine-3-carboxamide], the “BTX inhibition (rat) % inhibition” value was 28%.

As for `O=C(Nc1ccccc1)c1noc2c1CN(C(=O)c1ccccc1F)CC2` [Example 156, 5-(2-fluorobenzoyl)-N-phenyl-4,5,6,7-tetrahydroisoxazolo[4,5-c]pyridine-3-carboxamide], the “BTX inhibition (rat) % inhibition” value is listed as 26%.

In the case of `O=C(NC1CCN(Cc2ccc(C(F)(F)F)cc2)C1)c1noc2c1CN(S(=O)(=O)c1ccc(F)cc1)CC2` (stereo not drawn) [Example 39, 5-(4-fluoro-benzenesulfonyl)-4,5,6,7-tetrahydro-isoxazolo[4,5-c]pyridine-3-carboxylic acid [1-(4-trifluoromethyl-benzyl)-pyrrolidin-3-yl]amide], the “BTX inhibition (rat) % inhibition” value amounted to 79%.

As to `Cc1ccc(NC(=O)N2CCc3onc(C(=O)NCc4ccc(F)cc4)c3C2)cc1[N+](=O)[O-]` [Example 14, 6,7-dihydro-4H-isoxazolo[4,5-c]pyridine-3,5-dicarboxylic acid 3-(4-fluorobenzyl amide) 5-[(4-methyl-3-nitro-phenyl) amide]], the “BTX inhibition (rat) % inhibition” value was 70%.

For the compound `O=C(c1noc2c1CN(S(=O)(=O)c1cc(Cl)ccc1Cl)CC2)N(CCc1ccccc1)Cc1ccccc1` [Example 59, 5-(2,5-dichloro-benzenesulfonyl)-4,5,6,7-tetrahydro-isoxazolo[4,5-c]pyridine-3-carboxylic acid benzyl-phenethyl amide], the “BTX inhibition (rat) % inhibition” value was determined as 58%.

`C=CCOc1ccc(CN(Cc2ccco2)C(=O)c2noc3c2CN(S(=O)(=O)c2cccc(C(F)(F)F)c2)CC3)cc1` [Example 87, 5-(3-trifluoromethyl-benzenesulfonyl)-4,5,6,7-tetrahydro-isoxazolo[4,5-c]pyridine-3-carboxylic acid (4-allyloxy-benzyl)-furan-2-ylmethyl amide]: the “BTX inhibition (rat) % inhibition” value was found to be 41%.

In the case of `COc1ccc(OCCNC(=O)c2noc3c2CN(S(=O)(=O)c2ccc(C)cc2)CC3)cc1` [Example 109, 5-(toluene-4-sulfonyl)-4,5,6,7-tetrahydro-isoxazolo[4,5-c]pyridine-3-carboxylic acid [2-(4-methoxy-phenoxy)-ethyl] amide], the “BTX inhibition (rat) % inhibition” value is 56%.

As to `COc1ccc(NC(=O)N2CCc3onc(C(=O)NCc4ccccc4)c3C2)cc1` [Example 151, N^3-benzyl-N^5-(4-methoxyphenyl)-6,7-dihydroisoxazolo[4,5-c]pyridine-3,5(4H)-dicarboxamide], the “BTX inhibition (rat) % inhibition” value is recorded as 36%.

For `CCOC(=O)CCNC(=O)c1noc2c1CN(C(=S)NCC1CCCCC1)CC2` [Example 134, 3-{[5-(cyclohexylmethyl-thiocarbamoyl)-4,5,6,7-tetrahydro-isoxazolo[4,5-c]pyridine-3-carbonyl]-amino}-propionic acid ethyl ester], the “BTX inhibition (rat) % inhibition” value came to 55%.

Turning to `O=C(NCCN1CCCC1)c1noc2c1CN(S(=O)(=O)c1cccc(Cl)c1)CC2` [Example 118, 5-(3-chloro-benzenesulfonyl)-4,5,6,7-tetrahydro-isoxazolo[4,5-c]pyridine-3-carboxylic acid (2-pyrrolidin-1-yl-ethyl) amide], the “BTX inhibition (rat) % inhibition” value was determined as 76%.

As to `O=C(NC(=S)N1CCc2onc(C(=O)NCCN3CCCC3)c2C1)c1ccccc1` [Example 128, 5-benzoylaminocarbothioyl-4,5,6,7-tetrahydro-isoxazolo[4,5-c]pyridine-3-carboxylic acid (2-pyrrolidin-1-yl-ethyl) amide], the “BTX inhibition (rat) % inhibition” value was 74%.

Consider `O=C(NC1CCN(Cc2ccc(C(F)(F)F)cc2)C1)c1noc2c1CN(S(=O)(=O)c1ccccc1)CC2` (stereo not drawn) [Example 103, 5-benzenesulfonyl-4,5,6,7-tetrahydro-isoxazolo[4,5-c]pyridine-3-carboxylic acid [1-(4-trifluoromethyl-benzyl)-pyrrolidin-3-yl] amide], for which the “BTX inhibition (rat) % inhibition” value is given as 92%.

On to `Cc1ccc(NC(=O)N2CCc3onc(C(=O)NCCc4ccccc4)c3C2)cc1[N+](=O)[O-]` [Example 4, 6,7-dihydro-4H-isoxazolo[4,5-c]pyridine-3,5-dicarboxylic acid 5-[(4-methyl-3-nitro-phenyl) amide] 3-(phenethyl amide)], for which the “BTX inhibition (rat) % inhibition” value is 80%.

`O=C(Nc1ccccc1)c1noc2c1CN(Cc1ccc3ccccc3c1Br)CC2` [Example 135, 5-(1-bromo-naphthalen-2-ylmethyl)-4,5,6,7-tetrahydro-isoxazolo[4,5-c]pyridine-3-carboxylic acid phenyl amide]: the “BTX inhibition (rat) % inhibition” value is on record as 61%.

`CC(C)CNC(=O)c1noc2c1CN(C(=O)C(NC(=O)OCc1ccccc1)c1ccccc1)CC2` (stereo not drawn) [Example 126, [2-(3-isobutylcarbamoyl-6,7-dihydro-4H-isoxazolo[4,5-c]pyridin-5-yl)-2-oxo-1-phenyl-ethyl]-carbamic acid benzyl ester]: the “BTX inhibition (rat) % inhibition” value is 88%.
